{"source": "patent US20130245029A1", "about": "“TREATMENT OF CANCER WITH TOR KINASE INHIBITORS” (SIGNAL PHARMACEUTICALS, LLC, priority 2012, published 2013)", "key": {"[1]": {"system": "ETS overexpressing Ewing sarcoma cell lines", "assay": "Soft agar colony formation (clonogenic growth inhibition)", "type": "cell-based", "settings": "3 weeks in culture, ETS positive versus ETS negative cell lines, FIG. 1", "protocol": "FIG. 1 provides a clonogenic growth inhibition assay for Compound 1 with ETS positive and ETS negative cell lines. […] Soft Agar Colony Formation. A solid layer of 1% agarose is used to coat each well of a 96-well plate. After allowing two hours to cool, five hundred Ewing's cells are suspended in a 33% agarose (10% solution), 33% media with 2×FBS and 33% cell suspension in quadruplicate wells of a 96-well plate. Cells are treated with or without TOR kinase inhibitor in an upper layer of media. Every three days, the media is exchanged for fresh TOR kinase inhibitor containing media. After 3-weeks in culture, images are taken on a 10× objective lens and colonies are counted for each condition."}, "[2]": {"system": "Ewing's sarcoma cell lines (ETS positive cells)", "assay": "DNA damage COMET assay", "type": "cell-based", "settings": "48 hours treatment, FIG. 2", "source_text": "DNA Damage Assays: COMET Assay."}}, "data": [{"molecule": "CCN1C(=O)CNc2ncc(-c3ccc(-c4nc[nH]n4)nc3C)nc21", "note": "[Compound 1, 1-ethyl-7-(2-methyl-6-(1H-1,2,4-triazol-3-yl)pyridin-3-yl)-3,4-dihydropyrazino[2,3-b]pyrazin-2(1H)-one]", "values": [{"measurement": "sensitivity of colony formation to inhibition", "setting": "[1]", "value": "more sensitive"}, {"measurement": "DNA damage (COMET tail moments)", "setting": "[2]", "value": "potentiates DNA damage"}]}]}
